The target of test [1] is T1, Autotaxin (Homo sapiens, UniProt Q13822). The test can be described thus: Inhibition of ENPP2 (unknown origin) at 50 uM relative to control.
The target of test [2] is T2, Glycerophosphocholine cholinephosphodiesterase ENPP6 (Homo sapiens, UniProt Q6UWR7).
T2 sequence (Q6UWR7 whole entry): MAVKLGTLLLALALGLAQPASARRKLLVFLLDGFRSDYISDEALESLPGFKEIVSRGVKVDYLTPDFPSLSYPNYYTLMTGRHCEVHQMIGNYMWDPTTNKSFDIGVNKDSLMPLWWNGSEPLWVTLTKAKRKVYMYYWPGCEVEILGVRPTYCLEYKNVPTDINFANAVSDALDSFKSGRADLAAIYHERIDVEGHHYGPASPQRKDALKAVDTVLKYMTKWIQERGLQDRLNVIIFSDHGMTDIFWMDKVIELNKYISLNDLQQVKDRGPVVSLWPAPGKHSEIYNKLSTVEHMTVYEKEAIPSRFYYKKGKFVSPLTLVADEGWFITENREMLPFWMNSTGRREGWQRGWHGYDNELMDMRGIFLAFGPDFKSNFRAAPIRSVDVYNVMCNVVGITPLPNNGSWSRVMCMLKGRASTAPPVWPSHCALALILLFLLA
Kind of test: Inhibition of ENPP6 (unknown origin).

Test [3] addresses T3, Ectonucleotide pyrophosphatase/phosphodiesterase family member 1 (Homo sapiens, UniProt P22413).
T3 sequence (P22413 whole entry): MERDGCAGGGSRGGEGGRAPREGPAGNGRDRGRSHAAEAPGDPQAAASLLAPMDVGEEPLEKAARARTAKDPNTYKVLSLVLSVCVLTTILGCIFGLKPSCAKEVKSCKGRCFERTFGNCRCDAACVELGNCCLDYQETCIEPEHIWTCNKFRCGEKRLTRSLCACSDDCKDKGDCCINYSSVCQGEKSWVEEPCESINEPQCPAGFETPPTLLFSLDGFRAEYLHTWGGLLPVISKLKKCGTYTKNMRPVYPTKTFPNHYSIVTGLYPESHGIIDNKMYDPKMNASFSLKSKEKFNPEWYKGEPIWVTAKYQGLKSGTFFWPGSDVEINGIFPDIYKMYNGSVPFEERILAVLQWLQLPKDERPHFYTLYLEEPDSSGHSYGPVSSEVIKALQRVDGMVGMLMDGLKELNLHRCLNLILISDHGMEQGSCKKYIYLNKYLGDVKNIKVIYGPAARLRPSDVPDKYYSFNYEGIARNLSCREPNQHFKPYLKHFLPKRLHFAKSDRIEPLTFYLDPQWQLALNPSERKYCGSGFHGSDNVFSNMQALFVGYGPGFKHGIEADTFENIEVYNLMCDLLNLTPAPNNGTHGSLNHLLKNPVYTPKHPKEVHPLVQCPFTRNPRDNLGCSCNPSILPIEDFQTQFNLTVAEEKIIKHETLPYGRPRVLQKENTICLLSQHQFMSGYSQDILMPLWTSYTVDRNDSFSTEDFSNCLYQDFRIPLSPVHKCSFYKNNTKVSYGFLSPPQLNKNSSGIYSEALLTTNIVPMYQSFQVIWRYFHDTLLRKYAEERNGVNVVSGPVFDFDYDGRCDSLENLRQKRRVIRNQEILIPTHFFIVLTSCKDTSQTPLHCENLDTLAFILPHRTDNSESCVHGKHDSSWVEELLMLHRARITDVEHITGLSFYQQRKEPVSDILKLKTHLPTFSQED
The test can be described thus: Inhibition of ENPP1 (unknown origin).

The target of test [4] is T1, Autotaxin. The test can be described thus: Inhibition of ENPP2 (unknown origin).
For test [5], the target named is T4, Ectonucleotide pyrophosphatase/phosphodiesterase family member 3 (Homo sapiens) (UniProt O14638).
T4 sequence (whole entry): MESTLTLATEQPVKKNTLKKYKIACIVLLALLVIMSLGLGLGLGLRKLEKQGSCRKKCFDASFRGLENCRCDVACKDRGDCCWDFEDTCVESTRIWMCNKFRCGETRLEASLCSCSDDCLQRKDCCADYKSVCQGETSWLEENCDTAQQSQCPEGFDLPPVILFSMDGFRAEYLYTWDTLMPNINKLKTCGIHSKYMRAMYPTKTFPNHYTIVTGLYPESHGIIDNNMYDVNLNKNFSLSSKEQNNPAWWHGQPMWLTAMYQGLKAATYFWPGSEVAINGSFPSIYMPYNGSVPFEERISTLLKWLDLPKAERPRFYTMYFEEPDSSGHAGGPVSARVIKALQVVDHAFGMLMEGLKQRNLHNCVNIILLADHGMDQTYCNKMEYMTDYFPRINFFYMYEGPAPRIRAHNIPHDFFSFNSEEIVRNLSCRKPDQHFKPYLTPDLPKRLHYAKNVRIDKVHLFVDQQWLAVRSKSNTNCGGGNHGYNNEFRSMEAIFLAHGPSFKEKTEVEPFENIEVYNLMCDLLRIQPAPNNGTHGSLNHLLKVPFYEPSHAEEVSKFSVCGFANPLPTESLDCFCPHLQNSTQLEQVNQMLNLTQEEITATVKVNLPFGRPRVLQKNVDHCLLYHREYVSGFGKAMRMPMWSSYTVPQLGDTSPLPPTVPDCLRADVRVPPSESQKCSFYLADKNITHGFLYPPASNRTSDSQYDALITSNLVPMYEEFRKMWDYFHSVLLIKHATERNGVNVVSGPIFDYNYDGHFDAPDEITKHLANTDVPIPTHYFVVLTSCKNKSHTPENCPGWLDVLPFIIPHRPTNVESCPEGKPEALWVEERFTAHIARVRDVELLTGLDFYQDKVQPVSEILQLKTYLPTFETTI
The test can be described thus: Inhibition of ENPP3 (unknown origin) at 50 uM relative to control.

Test [6] addresses T5, Ectonucleotide pyrophosphatase/phosphodiesterase family member 3 (Homo sapiens, UniProt O14638).
T5 sequence (O14638 whole entry): T4 sequence (whole entry)
The test can be described thus: Inhibition of ENPP3 (unknown origin).

For test [7], the target named is T6, Glycerophosphocholine cholinephosphodiesterase ENPP6 (Homo sapiens) (UniProt Q6UWR7).
T6 sequence (whole entry): T2 sequence (Q6UWR7 whole entry)
Kind of test: Inhibition of ENPP6 (unknown origin) at 50 uM relative to control.

The structures appear in SMILES notation. A value given as a limit tells only on which side of the number the result lay.

Consider 19 molecules from ChEMBL document CHEMBL5576074, “[1,2,4]Triazolo[1,5-a]pyrimidine derivatives: Structure-activity relationship study leading to highly selective ENPP1 inhibitors” (Bioorg Med Chem Lett, 2024).

As for `Cc1nc2ncnn2c(N(C)C)c1Cc1ccc([N+](=O)[O-])cc1`, the inhibition (commonly the drop in the measured response relative to a control, in per cent) in test [1] was below 1%; in test [5], 2.7%; in test [7], below 1%. Moreover, the IC50 – broadly, the concentration at which inhibition is half-maximal – in test [2] was above 50 µM; in test [3], 21 µM; in test [4] it was above 50 µM; in test [6], above 50 µM.

`Cc1nc2ncnn2c(N(C)C)c1Cc1ccccc1Cl`: the inhibition in test [1] was 15%; in test [5] it was 3%; in test [7], below 1%. In addition, the IC50 in test [2] is above 50 µM; in test [3] it was 2.5 µM; in test [4] it was above 50 µM; in test [6], above 50 µM.

As for `Cc1nc2ncnn2c(N(C)C)c1Cc1cccc([N+](=O)[O-])c1`, the inhibition is 11% in test [1], 4.3% in test [5] and below 1% in test [7]. Further, the IC50 in test [2] was above 50 µM; in test [3], 3.6 µM; in test [4], above 50 µM; in test [6], above 50 µM.

Turning to `CCCN(CCC)c1c(Cc2ccccc2)c(C)nc2ncnn12`, the inhibition in test [1] was 5.5%; in test [5] it was below 1%; in test [7], below 1%. Also, the IC50 was above 50 µM in test [2], above 30 µM in test [3], above 50 µM in test [4] and above 50 µM in test [6].

For `CC(=O)Nc1cccc(Cc2c(C)nc3ncnn3c2N(C)C)c1`, the inhibition in test [1] is below 1%; in test [5] it was 3%; in test [7] it was below 1%. The IC50 was above 50 µM in test [2], 2.3 µM in test [3], above 50 µM in test [4] and above 50 µM in test [6].

Turning to `Cc1nc2ncnn2c(N(C)C)c1CC1CCCCC1`, the inhibition in test [1] was below 1%; in test [5], 3.7%; in test [7], below 1%. Also, the 50% inhibitory concentration (IC50) in test [2] is above 50 µM; in test [3], above 30 µM; in test [4], above 50 µM; in test [6] it was above 50 µM.

`Cc1nc2ncnn2c(NCc2ccccc2)c1Cc1cccc(N)c1`: the inhibition in test [1] is below 1%; in test [5], 11%; in test [7] it was below 1%. Besides, the IC50 in test [2] is above 50 µM; in test [3], 9 µM; in test [4], above 50 µM; in test [6] it was above 50 µM.

With `Cc1nc2ncnn2c(NCCO)c1Cc1ccccc1`, the inhibition is below 1% in test [1], 4.3% in test [5] and below 1% in test [7]. The IC50 in test [2] was above 50 µM; in test [3], above 30 µM; in test [4], above 50 µM; in test [6], above 50 µM.

For the molecule `C#CCNc1c(Cc2ccccc2)c(C)nc2ncnn12`, the inhibition in test [1] was 1.4%; in test [5], 24%; in test [7] it was below 1%. Moreover, the concentration for half-maximal inhibition (IC50) was above 50 µM in test [2], above 30 µM in test [3], above 50 µM in test [4] and above 50 µM in test [6].

Turning to `COc1cccc(Cc2c(C)nc3ncnn3c2N(C)C)c1`, the figures for the inhibition in test [1], in test [5] and in test [7] were 31%, 6.5% and below 1%, respectively. Moreover, the IC50 was above 50 µM in test [2], 1.6 µM in test [3], above 50 µM in test [4] and above 50 µM in test [6].

As for `CCCNc1c(Cc2ccccc2)c(C)nc2ncnn12`, the inhibition in test [1] was found to be 12%; in test [5] it was 5.2%; in test [7], 3.8%. For the same molecule, the IC50 was above 50 µM in test [2], 32 µM in test [3], above 50 µM in test [4] and above 50 µM in test [6].

With `Cc1nc2ncnn2c(O)c1Cc1ccccc1`, the inhibition is below 1% in test [1], 2.4% in test [5] and below 1% in test [7]. The IC50 in test [2] is above 50 µM; in test [3], above 30 µM; in test [4], above 50 µM; in test [6], above 50 µM.

`Cc1nc2ncnn2c(NCCCC(=O)O)c1Cc1cccc(N)c1`: the inhibition in test [1] came out at 22%; in test [5] it was 11%; in test [7], 3.7%. Moreover, the concentration for half-maximal inhibition (IC50) in test [2] is above 50 µM; in test [3], 11 µM; in test [4], above 50 µM; in test [6], above 50 µM.

As for `Cc1nc2ncnn2c(N(C)C)c1Cc1cccc(-c2ccccc2)c1`, the figures for the inhibition in test [1], in test [5] and in test [7] were 6.1%, 5.9% and below 1%, respectively. Also, the IC50 is above 50 µM in test [2], 21 µM in test [3], above 50 µM in test [4] and above 50 µM in test [6].

With `Cc1cc(N(C)C)n2ncnc2n1`, the inhibition was below 1% in test [1], 10% in test [5] and below 1% in test [7]. For the same molecule, the concentration for half-maximal inhibition (IC50) in test [2] is above 50 µM; in test [3], 28 µM; in test [4], above 50 µM; in test [6], above 50 µM.

On to `Cc1cc(O)n2ncnc2n1`, for which the inhibition is below 1% in test [1], 5.1% in test [5] and 2.1% in test [7]. The IC50 in test [2] was above 50 µM; in test [3], above 30 µM; in test [4], above 50 µM; in test [6], above 50 µM.

Take `Cc1nc2nc(SCC(=O)O)nn2c(N(C)C)c1Cc1ccccc1`: the inhibition in test [1], in test [5] and in test [7] was below 1% throughout. The IC50 is above 50 µM in test [2], above 30 µM in test [3], above 50 µM in test [4] and above 50 µM in test [6].

With `Cc1cccc(Cc2c(C)nc3ncnn3c2N(C)C)c1`, the inhibition in test [1] came out at 9.7%; in test [5] it was 4.9%; in test [7], 1.1%. For the same molecule, the IC50 is above 50 µM in test [2], 3.1 µM in test [3], above 50 µM in test [4] and above 50 µM in test [6].

Take `Cc1nc2ncnn2c(N(C)C)c1CCc1ccccc1`: the inhibition in test [1] was below 1%; in test [5] it was 3.6%; in test [7], below 1%. The IC50 in test [2] was above 50 µM; in test [3], 23 µM; in test [4], above 50 µM; in test [6] it was above 50 µM.
